Measurements from patent publication US12377111B2, “Composition, comprising thiamine derivative, for prevention or treatment of hypercortisolemia” (KYUNGPOOK NATIONAL UNIVERSITY INDUSTRY-ACADEMIC COOPERATION …, priority 2018, dated 2025).
Like-named read-outs stand apart in the source and are kept apart here.

Key:
NCI-H295R cells = test: Cortisol production in 8-Br-cAMP-stimulated NCI-H295R cells (ELISA); type: cell-based, human; settings: for Cortisol production concentration: 0.5 mM 8-Br-cAMP, 12 h pretreatment + 24 h; for Cortisol production concentration / inhibition of cortisol production increased by 0.5 mM 8-Br-cAMP (in words): NCI-H295R; for reduction in cortisol production: compared with non-treatment group (with 8-Br-cAMP treatment); for inhibition of cortisol production increased by 0.5 mM 8-Br-cAMP (in words): 20, 50, 100 μM
Method: Cortisol secretion inhibitory effects by allithiamine (Shanghai iChemical Technology CO., LTD., China), fursultiamine (Toronto Research Chemicals, Canada), or benfotiamine (Sigma-Aldrich, St. Louis, MO, USA), which are thiamine (vitamin B1) based compounds, were tested. For this, cortisol reduction effects in adrenal tumors that excessively secret cortisol were measured.
NCI-H295R (ATCC #CRL-2128) cells, a human adrenocortical carcinoma cell line, were dispensed into 24-well plates at 2.5×10^5 cells/well. Then, the cells were incubated in DMEM/F12 growth media containing 2.5% Nu-serum, 1% ITS (insulin, transferrin, and selenium), bovine serum albumin (BSA), linoleic acid, and penicillin/streptomycin for 48 hours.
Thereafter, the media were exchanged with serum-free media, and then the NCI-H295R cells were pretreated with allithiamine, fursultiamine, or benfotiamine at concentrations of 20 μM, 50 μM, and 100 μM for 12 hours. The cells were treated with 8-bromoadenosine 3′,5′-cyclic monophosphate (8-Br-cAMP) at a concentration of 0.5 mM to increase cortisol synthesis, and again treated with allithiamine, fursultiamine, or benfotiamine at 20 μM, 50 μM, and 100 μM, followed by reaction for 24 hours. After the reaction, cell cultures were collected, and the amount of cortisol produced in the cells was measured using an enzyme-linked immunosorbent assay (ELISA) kit (Enzo Life Sciences, Inc., NY, USA).

8-week-old male mice = settings: for corticosterone concentration: serum, oral 24 h and 2 h before stress
Method: For the restraint stress test, 8-week-old male mice were used, and were orally administered with fursultiamine once 24 hours before and once 2 hours before stress induction. For induction of stress, the mice were individually placed head-first into well-ventilated 50 mL polypropylene tubes, which were then tied with a cap of the 50 mL tube, and the mice were confined for 2 hours. Before stress induction, 1 hour and 2 hours after induction, and at 1 hour of recovery, blood was collected from the tail vein and serum was isolated, and then the concentration of corticosterone was measured using ELISA kit.

CRH-overexpressed mice = tested on: CRH-overexpressed mice
Method: To investigate high-cortisol inhibitory effects, C57BL/6J normal mice (WT-con) aged 8 to 9 weeks and corticotropin-releasing hormone (CRH)-overexpressed mice, which are Cushing's syndrome animal models, were used. One group of CRH-overexpressed mice were orally administered with 60 mg/kg fursultiamine once a day for 9 weeks (CRH tg-Fur 60 mpk).
During this period, the body weight change was monitored by measuring body weights once a week. To check the concentration of corticosterone (in cases of rodents), blood was collected from the tail vein and serum was isolated. The concentration of corticosterone was measured from the isolated serum by using an enzyme-linked immunosorbent assay (ELISA) kit (Enzo Life Sciences, Inc., NY, USA). The fat mass was measured 6 weeks after administration of the drug by using a body composition analyzer (MiniSpec LF 50, Bruker Optics, Germany), and the fat distribution was again monitored with micro CT images 8 weeks after administration.

C/C(=C(\CCOP(=O)(O)O)SC(=O)c1ccccc1)N(C=O)Cc1cnc(C)nc1N [benfotiamine]
Cortisol production concentration (NCI-H295R cells; 20 μM compound): 14.0 ng/mL | Cortisol production concentration (NCI-H295R cells; 50 μM compound): 12.0 ng/mL | reduction in cortisol production (NCI-H295R cells; 50 μM): 22.6% | Cortisol production concentration (NCI-H295R cells; 100 μM compound): 8.6 ng/mL | reduction in cortisol production (NCI-H295R cells; 100 μM): 44.3% | inhibition of cortisol production increased by 0.5 mM 8-Br-cAMP (in words) (NCI-H295R cells): significantly inhibited the cortisol production

CC(=C(CCO)SSCC1CCCO1)N(C=O)Cc1cnc(C)nc1N (stereo in doubt) [fursultiamine]
rate of increase in corticosterone level after stress induction (in words) (8-week-old male mice; restraint stress, oral administration): rate of increase in corticosterone level decreased | corticosterone concentration (8-week-old male mice; 0 min (before stress induction)): 63.6 | corticosterone concentration (8-week-old male mice; 60 min (1 hour after stress induction)): 260.4 | corticosterone concentration (8-week-old male mice; 120 min (2 hours after stress induction)): 261.4 | corticosterone concentration (8-week-old male mice; 180 min (1 hour of recovery)): 105.8 | corticosterone synthesis concentration (in words) (CRH-overexpressed mice; CRH-overexpressed mice, 60 mg/kg oral): smaller compared with the normal group | fat mass, Body weight (%) (CRH-overexpressed mice; CRH-overexpressed mice, 60 mg/kg oral once a day, 6 weeks after administration, body composition analyzer): 23.4% | increase in body weight (in words) (CRH-overexpressed mice; CRH-overexpressed mice, 60 mg/kg oral, 9 weeks, vs CRH-overexpressed control): smaller increase in body weight compared with the control | fat mass (in words) (CRH-overexpressed mice; CRH-overexpressed mice, 60 mg/kg oral, vs control): smaller compared with the control | Corticosterone (CRH-overexpressed mice; serum, CRH-overexpressed mice, 60 mg/kg oral once a day): 87.1 ng/mL | body weight (CRH-overexpressed mice; week 0, CRH-overexpressed mice, 60 mg/kg oral once a day): 18.4 | body weight (CRH-overexpressed mice; week 1, CRH-overexpressed mice, 60 mg/kg oral once a day): 17.8 | body weight (CRH-overexpressed mice; week 2, CRH-overexpressed mice, 60 mg/kg oral once a day): 17.8 | body weight (CRH-overexpressed mice; week 3, CRH-overexpressed mice, 60 mg/kg oral once a day): 18.2 | body weight (CRH-overexpressed mice; week 4, CRH-overexpressed mice, 60 mg/kg oral once a day): 18.1 | body weight (CRH-overexpressed mice; week 5, CRH-overexpressed mice, 60 mg/kg oral once a day): 18.4 | body weight (CRH-overexpressed mice; week 6, CRH-overexpressed mice, 60 mg/kg oral once a day): 17.9 | body weight (CRH-overexpressed mice; week 7, CRH-overexpressed mice, 60 mg/kg oral once a day): 19.8 | body weight (CRH-overexpressed mice; week 8, CRH-overexpressed mice, 60 mg/kg oral once a day): 19.7 | body weight (CRH-overexpressed mice; week 9, CRH-overexpressed mice, 60 mg/kg oral once a day): 19.2 | Cortisol production concentration (NCI-H295R cells; 20 μM compound): 14.1 ng/mL | Cortisol production concentration (NCI-H295R cells; 50 μM compound): 9.0 ng/mL | reduction in cortisol production (NCI-H295R cells; 50 μM): 43% | Cortisol production concentration (NCI-H295R cells; 100 μM compound): 7.5 ng/mL | reduction in cortisol production (NCI-H295R cells; 100 μM): 52.4% | inhibition of cortisol production increased by 0.5 mM 8-Br-cAMP (in words) (NCI-H295R cells): significantly inhibited the cortisol production

C=CCSS/C(CCO)=C(/C)N(C=O)Cc1cnc(C)nc1N [allithiamine]
Cortisol production concentration (NCI-H295R cells; 20 μM compound): 10.5 ng/mL | Cortisol production concentration (NCI-H295R cells; 50 μM compound): 6.4 ng/mL | reduction in cortisol production (NCI-H295R cells; 50 μM): 50.7% | Cortisol production concentration (NCI-H295R cells; 100 μM compound): 2.8 ng/mL | reduction in cortisol production (NCI-H295R cells; 100 μM): 78.7% | inhibition of cortisol production increased by 0.5 mM 8-Br-cAMP (in words) (NCI-H295R cells): significantly inhibited the cortisol production
